Source: patent US20250113823A1, “Arthropod Control Compositions” (priority 2022, published 2025)
Read-outs that look alike come from different tables or passages of the source.

Tests used:
Anopheles gambiae [1] = assay: Arm-in-cage test on human volunteers over time; assay type: in vivo; conditions: arm treated with 20%
Anopheles gambiae [2] = assay: Warm Body assay, mosquito landings on treated warm body; assay type: in vivo; conditions: for repellence (no mosquito landing on the attractive stimulus): with at least one of the two concentrations 0.447% & 1% (Table 4)
Method: Anopheles gambiae is also a model organism as it is anthropophilic and transmits malaria.
The controlling effect according to the present invention was assessed using an adapted Warm Body assay as defined in Kröber T, Kessler S, Frei J, Bourquin M, Guerin P M. 2010. J Am Mosq Control Assoc. 26: 381-386. In this in-vitro assay the number of mosquito landing on a warm body, simulating an attractive host treated with the tested stimuli, was measured in order to assess the repellence effect.
On the sandblasted glass Petri dish covering the warm body (28.3 cm^2), 100 μL of the compounds diluted at different concentrations in ethanol was applied. The number of mosquito landing on the warm body was counted for each stimulus and pure ethanol (solvent) as control.

Aedes aegypti [3] = assay: as above; assay type: in vivo; conditions: for pest or weed control at 0.0016 %: read-out: reduce the number of mosquito landings
Procedure, shortened: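 Compounds in ethanol (100 μL, various concentrations) were applied to a sandblasted glass dish covering the warm body (28.3 cm^2), with ethanol as control. Landings were counted automatically from 30 non-blood-fed, sugar-fed Aedes aegypti Rockefeller females aged 5–10 days, under 150 lux.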

Aedes aegypti [4] = assay: Free flying room assay, spatial repellence with human volunteer; assay type: in vivo
Source text: The goal of this large-scale test is to assess the propensity of stimulus released in the air to protect a human volunteer by limiting the mosquito presence in a protected space and the number of landing/biting. The protocol used to carry the test is following the guidelines indicated in WHO (2013; ISBN 978 92 4 150502 4).
A group of 50 Aedes aegypti female mosquitoes were introduced in one chamber of 25 m^3 one hour before the test started. The product was applied in the other chamber of 25 m^3 (“treated chamber”) and let evaporate for 30 minutes. The test started when the window separating the two chambers was opened in a tilt-on manner for another 30 minutes. Twenty minutes after the window was opened, a volunteer entered in the “treated chamber” and sat down for 10 minutes, exposing the forearm for the last 3 minutes to determine the probing activity (Protective Efficacy). Then, the connecting window was closed and the number of mosquitoes in each of the chambers was counted (Spatial Repellency). The negative controls were carried out following the same procedure but without the application of the stimulus. Three replicates of each treatment and of the negative control were conducted with three different volunteers.

Ixodes ricinus = assay: Warm Plate assay, tick repellence; conditions: for pest or weed control at 400 µg/mL / pest or weed control at 2000 µg/mL / pest or weed control at 10000 µg/mL: Ixodes ricinus, read-out: Percentage of repellence of ticks Ixodes ricinus on the warm plate
[5] = Anopheles gambiae, 4.47 mg/mL (Table 4), read-out: Percentage of repellence of mosquitoes Anopheles gambiae landing on the warm body
[6] = Anopheles gambiae, 10 mg/mL (Table 4), read-out: Percentage of repellence of mosquitoes Anopheles gambiae landing on the warm body
[7] = Aedes aegypti, 0.016 mg/mL (Table 3), read-out: Percentage of repellence of mosquitoes Aedes aegypti landing on the warm body
[8] = Aedes aegypti, 0.4 mg/mL (Table 3), read-out: Percentage of repellence of mosquitoes Aedes aegypti landing on the warm body
[9] = Aedes aegypti, 10 mg/mL (Table 3), read-out: Percentage of repellence of mosquitoes Aedes aegypti landing on the warm body
[10] = Aedes aegypti, read-out: Percentage of repellence of mosquitoes Aedes aegypti landing on the warm body

CCCCN(CCC(=O)OCC)C(C)=O [IR3535, ethyl butylacetylaminopropionate, reference compound]
Complete Protection Time (no confirmed landing) (Anopheles gambiae [1]): 0.17 h

COc1cc(C)cc(OC)c1OC [compound 1967, 3,4,5-trimethoxytoluene]
pest or weed control at 3.2 µg/mL (Anopheles gambiae [2]; Anopheles gambiae, 0.0032 mg/mL (Table 5), read-out: Percentage of repellence of mosquitoes Anopheles gambiae landing on the warm body): 0%
pest or weed control at 16 µg/mL (Anopheles gambiae [2]; Anopheles gambiae, 0.016 mg/mL (Table 5), read-out: Percentage of repellence of mosquitoes Anopheles gambiae landing on the warm body): 0%
pest or weed control at 80 µg/mL (Anopheles gambiae [2]; Anopheles gambiae, 0.08 mg/mL (Table 5), read-out: Percentage of repellence of mosquitoes Anopheles gambiae landing on the warm body): 1%
pest or weed control at 178 µg/mL (Anopheles gambiae [2]; Anopheles gambiae, 0.178 mg/mL (Table 4), read-out: Percentage of repellence of mosquitoes Anopheles gambiae landing on the warm body): 65%
pest or weed control at 178 µg/mL (Anopheles gambiae [2]; Anopheles gambiae, 0.178 mg/mL (Table 5), read-out: Percentage of repellence of mosquitoes Anopheles gambiae landing on the warm body): 59%
pest or weed control at 267 µg/mL (Anopheles gambiae [2]; Anopheles gambiae, 0.267 mg/mL (Table 4), read-out: Percentage of repellence of mosquitoes Anopheles gambiae landing on the warm body): 78%
pest or weed control at 267 µg/mL (Anopheles gambiae [2]; Anopheles gambiae, 0.267 mg/mL (Table 5), read-out: Percentage of repellence of mosquitoes Anopheles gambiae landing on the warm body): 82%
pest or weed control at 400 µg/mL (Anopheles gambiae [2]; Anopheles gambiae, 0.4 mg/mL (Table 4), read-out: Percentage of repellence of mosquitoes Anopheles gambiae landing on the warm body): 84%
pest or weed control at 400 µg/mL (Anopheles gambiae [2]; Anopheles gambiae, 0.4 mg/mL (Table 5), read-out: Percentage of repellence of mosquitoes Anopheles gambiae landing on the warm body): 71%
pest or weed control at 2000 µg/mL (Anopheles gambiae [2]; Anopheles gambiae, 2 mg/mL (Table 5), read-out: Percentage of repellence of mosquitoes Anopheles gambiae landing on the warm body): 100%
pest or weed control at 4470 µg/mL (Anopheles gambiae [2]; [5]): 100%
pest or weed control at 4470 µg/mL (Anopheles gambiae [2]; Anopheles gambiae, 4.47 mg/mL (Table 5), read-out: Percentage of repellence of mosquitoes Anopheles gambiae landing on the warm body): 100%
pest or weed control at 10000 µg/mL (Anopheles gambiae [2]; [6]): 100%
pest or weed control at 10000 µg/mL (Anopheles gambiae [2]; Anopheles gambiae, 10 mg/mL (Table 5), read-out: Percentage of repellence of mosquitoes Anopheles gambiae landing on the warm body): 100%
repellence (Anopheles gambiae [2]; concentration ≥0.0178% (Table 5)): > 50%
landing (Anopheles gambiae [2]; concentrations ≥0.2% (Table 5)): no landing at all
percentage of repellence (Anopheles gambiae [2]; lowest concentration tested, 0.0178% (Table 4)): above 60%
repellence (no mosquito landing on the attractive stimulus) (Anopheles gambiae [2]): 100%
pest or weed control at 16 µg/mL (Aedes aegypti [3]; [7]): 0%
pest or weed control at 400 µg/mL (Aedes aegypti [3]; [8]): 12%
pest or weed control at 10000 µg/mL (Aedes aegypti [3]; [9]): 81%
mosquitoes landed on the volunteer (Aedes aegypti [4]; in 3 minutes, negative control 60.7±2.5 landings): 22.3±3.2
Spatial Repellence (Aedes aegypti [4]; large scale assay, 25 m3 chambers, compound released in the air): 47.3 ± 3.8%
Protective efficacy (Aedes aegypti [4]; large scale assay, probing on volunteer forearm, 3 minutes): 63.1 ± 5.5%
mosquito entered the treated chamber (Aedes aegypti [4]; negative control 82.5±3.7%): 43.5±3.2%

COC(=O)Oc1ccc(C)cc1OC [compound 1141, (2-methoxy-4-methylphenyl) methyl carbonate]
pest or weed control at 4470 µg/mL (Anopheles gambiae [2]; [5]): 100%
pest or weed control at 10000 µg/mL (Anopheles gambiae [2]; [6]): 69%
repellence (no mosquito landing on the attractive stimulus) (Anopheles gambiae [2]): 100%
pest or weed control at 3.2 µg/mL (Aedes aegypti [3]; Aedes aegypti, 0.0032 mg/mL (Table 1), read-out: Percentage of repellence of mosquitoes Aedes aegypti landing on the warm body): 24%
pest or weed control at 7.1 µg/mL (Aedes aegypti [3]; Aedes aegypti, 0.0071 mg/mL (Table 1), read-out: Percentage of repellence of mosquitoes Aedes aegypti landing on the warm body): 39%
pest or weed control at 16 µg/mL (Aedes aegypti [3]; Aedes aegypti, 0.016 mg/mL (Table 1), read-out: Percentage of repellence of mosquitoes Aedes aegypti landing on the warm body): 17%
pest or weed control at 35.7 µg/mL (Aedes aegypti [3]; Aedes aegypti, 0.0357 mg/mL (Table 1), read-out: Percentage of repellence of mosquitoes Aedes aegypti landing on the warm body): 13%
pest or weed control at 53 µg/mL (Aedes aegypti [3]; Aedes aegypti, 0.053 mg/mL (Table 1), read-out: Percentage of repellence of mosquitoes Aedes aegypti landing on the warm body): 50%
pest or weed control at 80 µg/mL (Aedes aegypti [3]; Aedes aegypti, 0.08 mg/mL (Table 1), read-out: Percentage of repellence of mosquitoes Aedes aegypti landing on the warm body): 39%
pest or weed control at 178 µg/mL (Aedes aegypti [3]; Aedes aegypti, 0.178 mg/mL (Table 1), read-out: Percentage of repellence of mosquitoes Aedes aegypti landing on the warm body): 67%
pest or weed control at 400 µg/mL (Aedes aegypti [3]; Aedes aegypti, 0.4 mg/mL (Table 1), read-out: Percentage of repellence of mosquitoes Aedes aegypti landing on the warm body): 72%
pest or weed control at 890 µg/mL (Aedes aegypti [3]; Aedes aegypti, 0.89 mg/mL (Table 1), read-out: Percentage of repellence of mosquitoes Aedes aegypti landing on the warm body): 98%
pest or weed control at 2000 µg/mL (Aedes aegypti [3]; Aedes aegypti, 2 mg/mL (Table 1), read-out: Percentage of repellence of mosquitoes Aedes aegypti landing on the warm body): 89%
pest or weed control at 4470 µg/mL (Aedes aegypti [3]; Aedes aegypti, 4.47 mg/mL (Table 1), read-out: Percentage of repellence of mosquitoes Aedes aegypti landing on the warm body): 87%
pest or weed control at 10000 µg/mL (Aedes aegypti [3]; Aedes aegypti, 10 mg/mL (Table 1), read-out: Percentage of repellence of mosquitoes Aedes aegypti landing on the warm body): 91%
pest or weed control at 400 µg/mL (Ixodes ricinus): 8.3%
pest or weed control at 2000 µg/mL (Ixodes ricinus): 58.3%
pest or weed control at 10000 µg/mL (Ixodes ricinus): 66.7%

C=CCOCc1ccc(O)c(OCC)c1 [compound 1479, 4-[(allyloxy)methyl]-2-ethoxyphenol]
pest or weed control at 16 µg/mL (Aedes aegypti [3]; [7]): 55%
pest or weed control at 400 µg/mL (Aedes aegypti [3]; [8]): 89%
pest or weed control at 10000 µg/mL (Aedes aegypti [3]; [9]): 98%
pest or weed control at 1 % (Aedes aegypti [3]; Aedes aegypti, highest tested concentration, 1% (Table 3), read-out: repellence): > 90%
pest or weed control at 0.04 % (Aedes aegypti [3]; Aedes aegypti, intermediate concentration of 0.04% (Table 3), read-out: repellence): > 75%
pest or weed control at 0.0016 % (Aedes aegypti [3]; Aedes aegypti, lowest concentration of 0.0016% (Table 3)): > 50%
pest or weed control at 400 µg/mL (Ixodes ricinus): 66.7%
pest or weed control at 2000 µg/mL (Ixodes ricinus): 100%
pest or weed control at 10000 µg/mL (Ixodes ricinus): 100%
ticks repelled (Ixodes ricinus; concentration of 1% (Table 10)): repel all the ticks
ticks repelled (Ixodes ricinus; concentrations of 0.2% and 1% (Table 10)): repelled all ticks
fraction of the tested ticks repelled (Ixodes ricinus; lowest tested concentration of 0.04% (Table 10)): ⅔

COc1ccc(OC)c(OC)c1 [compound 1201, 1,2,4-trimethoxybenzene]
pest or weed control at 3.2 µg/mL (Aedes aegypti [3]; Aedes aegypti, 0.0032 mg/mL (Table 2), read-out: Percentage of repellence of mosquitoes Aedes aegypti landing on the warm body): 46%
pest or weed control at 16 µg/mL (Aedes aegypti [3]; Aedes aegypti, 0.016 mg/mL (Table 2), read-out: Percentage of repellence of mosquitoes Aedes aegypti landing on the warm body): 82%
pest or weed control at 35.7 µg/mL (Aedes aegypti [3]; Aedes aegypti, 0.0357 mg/mL (Table 2), read-out: Percentage of repellence of mosquitoes Aedes aegypti landing on the warm body): 58%
pest or weed control at 80 µg/mL (Aedes aegypti [3]; Aedes aegypti, 0.08 mg/mL (Table 2), read-out: Percentage of repellence of mosquitoes Aedes aegypti landing on the warm body): 72%
pest or weed control at 178 µg/mL (Aedes aegypti [3]; Aedes aegypti, 0.178 mg/mL (Table 2), read-out: Percentage of repellence of mosquitoes Aedes aegypti landing on the warm body): 63%
pest or weed control at 400 µg/mL (Aedes aegypti [3]; Aedes aegypti, 0.4 mg/mL (Table 2), read-out: Percentage of repellence of mosquitoes Aedes aegypti landing on the warm body): 79%
pest or weed control at 890 µg/mL (Aedes aegypti [3]; Aedes aegypti, 0.89 mg/mL (Table 2), read-out: Percentage of repellence of mosquitoes Aedes aegypti landing on the warm body): 95%
pest or weed control at 2000 µg/mL (Aedes aegypti [3]; Aedes aegypti, 2 mg/mL (Table 2), read-out: Percentage of repellence of mosquitoes Aedes aegypti landing on the warm body): 89%
pest or weed control at 10000 µg/mL (Aedes aegypti [3]; Aedes aegypti, 10 mg/mL (Table 2), read-out: Percentage of repellence of mosquitoes Aedes aegypti landing on the warm body): 96%
decrease the number of mosquito landings (Aedes aegypti [3]; lowest doses tested (0.00032% & 0.0016%) (Table 2)): two folds
pest or weed control at 400 µg/mL (Ixodes ricinus): 0%
pest or weed control at 2000 µg/mL (Ixodes ricinus): 23.1%
pest or weed control at 10000 µg/mL (Ixodes ricinus): 100%
ticks repelled (Ixodes ricinus; concentration of 1% (Table 10)): repel all the ticks

CC=Cc1ccc(OC)c(OC)c1 [compound 1195, 1,2-dimethoxy-4-prop-1-enylbenzene]
pest or weed control at 16 µg/mL (Aedes aegypti [3]; [10]): 56%
pest or weed control at 400 µg/mL (Aedes aegypti [3]; [10]): 69%
pest or weed control at 10000 µg/mL (Aedes aegypti [3]; [10]): 100%
pest or weed control at 0.0016 % (Aedes aegypti [3]; Aedes aegypti): > 50%
pest or weed control at 1 % (Aedes aegypti [3]; Aedes aegypti, read-out: repellence): > 90%
mosquito landing within the two minutes of experiments (Aedes aegypti [3]; highest tested concentration, 1% (Table 3)): protect the attractive stimulus for any mosquito landing
pest or weed control at 400 µg/mL (Ixodes ricinus): 46.2%
pest or weed control at 2000 µg/mL (Ixodes ricinus): 76.9%
pest or weed control at 10000 µg/mL (Ixodes ricinus): 100%
ticks repelled (Ixodes ricinus; concentration of 1% (Table 10)): repel all the ticks
